Test results published in ChEMBL document CHEMBL4311969, “Polygala tenuifolia-Acori tatarinowii herbal pair as an inspiration for substituted cinnamic α-asaronol esters: Design, synthesis, anticonvulsant activity, and inhibition of lactate dehydrogenase study” (Eur J Med Chem, 2019).
Values joined by “and” are separate entries in the source; they are usually repeats but may differ in a detail not shown here. Identical values can stand only once. Active and inactive are the calls of the source. The rule behind the calls is not given here.

Columns and labels:
[1] = Drug metabolism in Sprague-Dawley rat assessed as retention time by HPLC/MS analysis; assay type: ADME
[2] = test system: Mus musculus; test: Anticonvulsant activity in Kunming mouse assessed as MES-induced hind limb extension at 100 mg/kg, ip administered 0. 5 to 2 hrs before MES stimulation; assay type: functional, organism-based
[3] = Neurotoxicity against Kunming mouse assessed as time remained in rod at 100 mg/kg, ip administered 0.5 to 2 hrs by rotarod test; assay type: toxicity, organism-based; conditions: in vivo
[4] = organism: Homo sapiens; test: Inhibition of human LDH1 at 0.5 mM using sodium pyruvate as substrate by UV-VIS spectrophotometry method relative to control
[5] = organism: Homo sapiens; test: Inhibition of human LDH5 at 0.5 mM using sodium pyruvate as substrate by UV-VIS spectrophotometry method relative to control
[6] = test system: Mus musculus; test: Anticonvulsant activity in Kunming mouse assessed as MES-induced hind limb extension at 100 mg/kg, ip administered 0. 5 to 4 hrs before MES stimulation relative to control; assay type: functional
[7] = test system: Mus musculus; test: Anticonvulsant activity in Kunming mouse assessed as MES-induced hind limb extension at 100 mg/kg, ip administered 3 hrs before MES stimulation; assay type: functional, organism-based
[8] = test system: Mus musculus; test: Anticonvulsant activity in Kunming mouse assessed as reduction in Sc3-MP-induced clonic seizure rate at 300 mg/kg, ip administered 0.5 hrs before Sc3-MP stimulation relative to control; assay type: functional; set-up: scale not given: the % may be the effect or the level left
[9] = test system: Mus musculus; test: Anticonvulsant activity in Kunming mouse assessed as reduction in Sc3-MP-induced tonic seizure rate at 300 mg/kg, ip administered 0.5 hrs before Sc3-MP stimulation relative to control; assay type: functional; set-up: scale not given: the % may be the effect or the level left
[10] = test system: Mus musculus; test: Anticonvulsant activity in Kunming mouse assessed as MES-induced hind limb extension at 50 mg/kg, ip administered 0.5 and 2 hrs before MES stimulation relative to control; assay type: functional
[11] = test system: Mus musculus; test: Anticonvulsant activity in Kunming mouse assessed as reduction in ScPTZ-induced seizure at 300 mg/kg, ip administered 0.25 to 2 hrs before ScPTZ stimulation relative to control; assay type: functional; set-up: scale not given: the % may be the effect or the level left
[12] = test system: Mus musculus; test: Anticonvulsant activity in Kunming mouse assessed as reduction in ScPTZ-induced seizure at 100 mg/kg, ip administered 0.25 to 2 hrs before ScPTZ stimulation relative to control; assay type: functional
[13] = test system: Mus musculus; test: Anticonvulsant activity in Kunming mouse assessed as reduction in ScPTZ-induced clonic seizure at 300 mg/kg, ip administered 0.5 hrs before ScPTZ stimulation relative to control; assay type: functional; set-up: scale not given: the % may be the effect or the level left
[14] = test system: Mus musculus; test: Anticonvulsant activity in Kunming mouse assessed as reduction in ScPTZ-induced clonic seizure at 100 mg/kg, ip administered 0.5 hrs before ScPTZ stimulation relative to control; assay type: functional; set-up: scale not given: the % may be the effect or the level left
[15] = test system: Mus musculus; test: Anticonvulsant activity in Kunming mouse assessed as reduction in ScPTZ-induced tonic seizure rate at 300 mg/kg, ip administered 0.5 hrs before ScPTZ stimulation relative to control; assay type: functional; set-up: scale not given: the % may be the effect or the level left
[16] = test system: Mus musculus; test: Anticonvulsant activity in Kunming mouse assessed as reduction in ScPTZ-induced tonic seizure rate at 100 mg/kg, ip administered 0.5 hrs before ScPTZ stimulation relative to control; assay type: functional; set-up: scale not given: the % may be the effect or the level left
[17] = test system: Mus musculus; test: Anticonvulsant activity in Kunming mouse assessed as reduction in ScPTZ-induced mortality rate at 300 mg/kg, ip administered 0.5 hrs before ScPTZ stimulation relative to control; assay type: functional; set-up: scale not given: the % may be the effect or the level left
[18] = test system: Mus musculus; test: Anticonvulsant activity in ip dosed Kunming mouse assessed as MES-induced hind limb extension administered 0.5 hrs before MES stimulation; assay type: functional
[19] = test system: Mus musculus; test: Anticonvulsant activity in ip dosed Kunming mouse assessed as reduction in ScPTZ-induced seizure administered 0.5 hrs before ScPTZ stimulation; assay type: functional
[20] = test system: Mus musculus; test: Anticonvulsant activity in Kunming mouse assessed as reduction in Sc3-MP-induced seizure ip dosed measured at 0.5 hrs before Sc3-MP stimulation; assay type: functional
[21] = test system: Mus musculus; test: […] activity in ip dosed Kunming mouse assessed as reduction in formalin-induced paw licking administered 0.5 hrs before formalin stimulation; assay type: functional
[22] = Neurotoxicity against ip dosed Kunming mouse assessed as time remained in rod measured at 0.5 hrs by rotarod test; assay type: toxicity, organism-based; conditions: in vivo
[23] = Protective index, ratio of TD50 for neurotoxicity against ip dosed Kunming mouse assessed as time remained in rod measured at 0.5 hrs by rotarod test to ED50 for anticonvulsant activity in ip dosed Kunming mouse assessed as MES-induced hind limb extension administered 0.5 hrs; assay type: toxicity, organism-based; conditions: in vivo, read-out: PI
[24] = (§1) Protective index, ratio of TD50 for neurotoxicity against ip dosed Kunming mouse assessed as time remained in rod measured at 0.5 hrs by rotarod test to ED50 for anticonvulsant activity in ip dosed Kunming mouse assessed as reduction in ScPTZ-induced seizure administered 0.5 hrs before ScPTZ stimulation; assay type: toxicity, organism-based; conditions: in vivo, read-out: PI
[25] = as §1, with “Sc3-MP-induced” for “ScPTZ-induced”, “Sc3-MP” for “ScPTZ”; assay type: toxicity, organism-based; conditions: in vivo, read-out: PI
[26] = as §1, with “formalin-induced paw licking” for “ScPTZ-induced seizure”, “formalin” for “ScPTZ”; assay type: toxicity, organism-based; conditions: in vivo, read-out: PI
[27] = test system: Mus musculus; test: Anticonvulsant activity in Kunming mouse assessed as MES-induced hind limb extension at 50 mg/kg, ip administered 0.5 to 4 hrs before MES stimulation relative to control; assay type: functional
[28] = test system: Mus musculus; test: Anticonvulsant activity in Kunming mouse assessed as reduction in ScPTZ-induced seizure at 100 mg/kg, ip administered 0.25 and 1 hrs before ScPTZ stimulation relative to control; assay type: functional; set-up: scale not given: the % may be the effect or the level left

| SMILES | Activity [2] | Activity [3] | inhibition [4] | inhibition [5] | Activity [6] | Activity [7] | ED50 [18] | ED50 [19] | ED50 [21] | TD50 at 0.5 h [22] | selectivity ratio at 0.5 h [24] | selectivity ratio at 0.5 h [26] | other results |
| --- | --- | --- | --- | --- | --- | --- | --- | --- | --- | --- | --- | --- | --- |
| COc1cc(OC)c(OC)c(OC)c1/C=C/C(=O)O[C@@H]1O[C@H](C(=O)O)[C@@H](O)[C@H](O)[C@H]1O |  |  |  |  |  |  |  |  |  |  |  |  | Retention_time [1]: 55.2 min |
| COc1ccc(/C=C/C(=O)OC/C=C/c2cc(OC)c(OC)cc2OC)c(OC)c1 | Active | Non-Toxic | inactive | inactive | 25 - 100% |  |  |  |  |  |  |  |  |
| COc1cc(OC)c(OC)cc1CCCOC(=O)/C=C/c1cc(OC)c(OC)c(OC)c1 | Active | Non-Toxic | < 5% | 9% | 25 - 100% | Active |  |  |  |  |  |  |  |
| COc1cc(OC)c(OC)cc1/C=C/COC(=O)/C=C/c1cccc(Cl)c1 | Active | Non-Toxic | < 5% | < 9% | 25 - 100% |  |  |  |  |  |  |  |  |
| COc1ccc(OC)c(/C=C/C(=O)OC/C=C/c2cc(OC)c(OC)cc2OC)c1 | Active | Non-Toxic |  |  | 25 - 100% | Active |  |  |  |  |  |  |  |
| COc1cc(OC)c(OC)cc1/C=C/COC(=O)/C=C/c1ccccc1C(F)(F)F | Active | Non-Toxic | < 5% | < 9% | 25 - 100% | Active | 85.7 mg/kg and 203 µmol/kg | > 200 mg/kg and > 474 µmol/kg | 123 mg/kg and 291 µmol/kg | > 2370 µmol/kg and > 1000 mg/kg | 5 | > 8.1 | Activity [8]: 100%; Activity [9]: 75%; Activity [10]: inactive; Activity [11]: 50%; Activity [12]: inactive; Activity [13]: 100%; Activity [14]: 100%; Activity [15]: 50%; Activity [16]: 100%; Activity [17]: 0%; ED50 [20]: > 300 mg/kg and > 710 µmol/kg; selectivity ratio at 0.5 h [23]: > 11.7; selectivity ratio at 0.5 h [25]: 3.3 |
| COc1cc(OC)c(OC)cc1/C=C/COC(=O)/C=C/c1ccc(Br)cc1 | Active | Non-Toxic | < 5% | < 9% | 25 - 100% | Active | 61.8 mg/kg and 143 µmol/kg | 446 µmol/kg and 193 mg/kg | 105 mg/kg and 243 µmol/kg | 2440 µmol/kg and 1060 mg/kg | 5.5 | 10.1 | Activity [8]: 100%; Activity [9]: 75%; Activity [27]: 50%; Activity [11]: 50%; Activity [12]: inactive; Activity [28]: 75%; Activity [13]: 100%; Activity [14]: 100%; Activity [15]: 25%; Activity [16]: 100%; Activity [17]: 0%; ED50 [20]: > 300 mg/kg and > 692 µmol/kg; selectivity ratio at 0.5 h [23]: 17.1; selectivity ratio at 0.5 h [25]: 5 |
| COC[C@@H](NC(C)=O)C(=O)NCc1ccccc1 [LACOSAMIDE] |  |  |  |  |  |  | 37.6 µmol/kg and 9.4 mg/kg | > 500 mg/kg and > 2000 µmol/kg | 15 mg/kg and 0.1 µmol/kg | 135 µmol/kg | < 0.1 | 2.2 |  |
| COc1cc(OC)c(OC)cc1/C=C/COC(=O)/C=C/c1ccc(C(F)(F)F)cc1 | Active | Non-Toxic | < 5% | < 9% | 25 - 100% |  |  |  |  |  |  |  |  |
| COc1cc(/C=C/C(=O)OC/C=C/c2cc(OC)c(OC)cc2OC)cc(OC)c1 | Active | Non-Toxic | inactive | inactive | 25 - 100% |  |  |  |  |  |  |  |  |
| COc1cc(OC)c(OC)cc1/C=C/COC(=O)/C=C/c1c(OC)cccc1OC | Active | Non-Toxic | inactive | inactive | 25 - 100% | Active |  |  |  |  |  |  |  |
| COc1cc(OC)c(OC)cc1/C=C/C(=O)O[C@@H]1O[C@H](C(=O)O)[C@@H](O)[C@H](O)[C@H]1O |  |  |  |  |  |  |  |  |  |  |  |  | Retention_time [1]: 50.1 min |
| COc1cc(OC)c(OC)cc1/C=C/COC(=O)/C=C/c1c(OC)c(OC)cc(OC)c1OC | Active | Non-Toxic | Active | Active | 25 - 100% |  | 122 µmol/kg and 57.9 mg/kg | 149 mg/kg and 314 µmol/kg | 50.8 mg/kg and 107 µmol/kg | > 2110 µmol/kg and > 1000 mg/kg | 6.7 | 19.7 | Activity [8]: 100%; Activity [9]: 75%; Activity [27]: 50%; Activity [11]: 50%; Activity [12]: 25%; Activity [28]: 75%; Activity [13]: 100%; Activity [14]: 100%; Activity [15]: 25%; Activity [16]: 25%; ED50 [20]: > 300 mg/kg and > 632 µmol/kg; selectivity ratio at 0.5 h [23]: > 17.3; selectivity ratio at 0.5 h [25]: 5 |
